Consider two molecules from patent publication US20240023549A1 (published 2024).

Broadly, the melting point is the temperature of the solid-liquid transition.

Molecule `CCN(C)/C=N/c1cc(C)c(C(=O)n2ccc3cc(C(F)(F)F)ccc32)cc1C` came in with a melting point of 89 to 92 °C.
For `CCN(C)/C=N/c1cc(C)c(C(=O)Nc2ccccc2)cc1C` the value was 147 to 149 °C.
